Results as given in US9850206B2, “S1P and/or ATX modulating agents” (BIOGEN MA INC., priority 2012, dated 2017).
Where two headings read alike, the source gives them in different places.

Experiments:
S1P1 = S1P1 (Homo sapiens, UniProt P21453); assay: S1P receptor activity assay (calcium flux, FLIPR TETRA), S1P1; assay type: cell-based
Description: (§1) Agonist percentage activation determinations were obtained by assaying sample compounds and referencing the Emax control for each receptor profiled. Antagonist percentage inhibition determinations were obtained by assaying sample compounds and referencing the control EC80 wells for each receptor profiled. The samples were run using a “Single Addition” assay protocol for the agonist and antagonist assay run. The protocol design was as follows:
(§2) Master stock solution: Unless specified otherwise, all sample compounds were diluted in 100% anhydrous DMSO including all serial dilutions. All control wells contained identical solvent final concentrations as did the sample compound wells.
(§3) Compound plate for assay: The sample compounds were transferred from a master stock solution into a daughter plate that was used in the assay. Each sample compound was diluted into assay buffer (1×HBSS with 20 mM HEPES and 2.5 mM Probenecid) at an appropriate concentration to obtain final concentrations.
(§4) Sample compounds were plated in an eight-point, four-fold dilution series in duplicate with a top concentration of 10 μM. The concentrations described here reflect the final concentration of the compounds during the antagonist assay.
(§5) Reference agonists were handled as mentioned above serving as assay control. The reference agonists were handled as described above for Emax.
(§6) Assay was read for 180 seconds using the […] (This assay run added sample compounds and reference agonist to respective wells). At the completion of the first “Single Addition” assay run, assay plate was removed from the […] and placed at 25° C. for seven (7) minutes.
(§7) Using the EC80 values determined during the agonist assay, stimulated all pre-incubated sample compound and reference antagonist (if applicable) wells with EC80 of reference agonist. Read for 180 seconds using the […] (This assay added reference agonist to respective wells—then fluorescence measurements were collected to calculate percentage inhibition values).
(§8) All plates were subjected to appropriate baseline corrections. Once baseline corrections were processed, maximum fluorescence values were exported and data manipulated to calculate percentage activation, percentage inhibition and Z′.

S1P4 = biological target: T1, S1P4 (Homo sapiens, UniProt O95977); assay: S1P receptor activity assay (calcium flux, FLIPR TETRA), S1P4; assay type: cell-based
T1 sequence (O95977 1-384): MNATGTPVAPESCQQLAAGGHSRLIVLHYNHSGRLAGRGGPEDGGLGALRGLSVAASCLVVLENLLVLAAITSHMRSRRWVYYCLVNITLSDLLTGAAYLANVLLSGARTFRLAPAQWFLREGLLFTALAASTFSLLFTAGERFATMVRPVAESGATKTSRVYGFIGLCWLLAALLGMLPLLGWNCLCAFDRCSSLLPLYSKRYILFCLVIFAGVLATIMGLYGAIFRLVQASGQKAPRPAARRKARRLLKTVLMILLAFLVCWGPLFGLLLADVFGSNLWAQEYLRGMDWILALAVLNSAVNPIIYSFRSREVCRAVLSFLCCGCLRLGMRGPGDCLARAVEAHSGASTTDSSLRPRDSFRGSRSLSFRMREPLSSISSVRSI
Description: as §1, §2, §3, §4, §5, §6, §7, §8

Human ATX protein = biological target: T2, Human ATX protein (Homo sapiens, UniProt Q13822); assay: Autotaxin (ATX) FRET assay with FS-3 substrate; assay type: biochemical
T2 construct: made in house
Description: ATX (Autotaxin) is a 125 KDa glycoprotein with lysophospholipase D (LPLD) activity that generates the bioactive lipid lysophosphatidic acid (LPA) from lysophosphatidylcholine (LPC). The ATX biochemical assay utilizes a FRET (fluorescence resonance energy transfer) technology platform. […] ATX catalyzes the hydrolysis of the substrate which separates the dabsyl quencher from the fluorescein reporter, which becomes fluorescent. The reaction is monitored by a SpectraMax M5 (Molecular Devices, Sunnyvale, Calif.) with at excitation wavelength 485 nm and emission wavelength 535 nm.
Fatty acid free-BSA (Sigma A8806): 10 mg/mL in H2O, stored at 4° C.
2×ATX assay buffer: 100 mM Tris, 280 mM NaCl, 10 mM KCl, 2 mM CaCl2, 2 mM MgCl2, pH 7.4.
Human ATX protein: expressed and purified in house. Stored at −80° C.
Substrate FS-3 (Echelon, L-2000): 100 μg in 77.74 μL H2O (1 mM stock), stored at −20° C.
Compound dilution—All compounds were provided at 10 mM in 100% DMSO. In the first well, 2 μL of 10 mM compound was added to 78 μL of DMSO (1:40 dilution). In subsequent wells 3-fold dilution (total 10 dilutions) were performed.
1×ATX assay buffer was made up with a final concentration of 1 mg/mL fatty acid free-BSA using 2×ATX assay buffer, 10 mg/ml fatty acid free-BSA and ddH2O.
38 μL was added per well to the assay plate. The final concentration of ATX in the reaction as 1.0 μg/mL.
2 μL per well of compounds was transferred to provide the desired concentration. The plate was centrifuged, then incubated at room temperature for 30 minutes on the shaker.
FS-3 was diluted with 1×ATX assay buffer to a concentration of FS-3 of 10 μM (5×). Then, 10 μL was added per well to the assay plate. The final concentration of FS-3 in the reaction was 2 μM. The plate was centrifuged. The plate was kept shaking at room temperature for 2 hours. Because FS-3 substrate is light sensitive, plates were kept covered and protected from light.

S1P5 = S1P5 (Homo sapiens, UniProt Q9H228); assay: S1P receptor activity assay (calcium flux, FLIPR TETRA), S1P5; assay type: cell-based
Description: as §1, §2, §3, §4, §5, §6, §7, §8

[1] = calcium flux, top concentration 10 μM, the >5 μM sentence says only 'for S1P1', read-out: IC50 for S1P1 agonist activity
[2] = calcium flux, top concentration 10 μM, the >5 μM sentence says only 'for S1P4', read-out: IC50 for S1P4 agonist activity
[3] = FS-3 2 μM, ATX 1.0 μg/mL, 2 hours at room temperature, read-out: IC50 (ATX)
[4] = calcium flux, top concentration 10 μM, read-out: IC50 for S1P5

S1P5, sequence (Q9H228 whole entry): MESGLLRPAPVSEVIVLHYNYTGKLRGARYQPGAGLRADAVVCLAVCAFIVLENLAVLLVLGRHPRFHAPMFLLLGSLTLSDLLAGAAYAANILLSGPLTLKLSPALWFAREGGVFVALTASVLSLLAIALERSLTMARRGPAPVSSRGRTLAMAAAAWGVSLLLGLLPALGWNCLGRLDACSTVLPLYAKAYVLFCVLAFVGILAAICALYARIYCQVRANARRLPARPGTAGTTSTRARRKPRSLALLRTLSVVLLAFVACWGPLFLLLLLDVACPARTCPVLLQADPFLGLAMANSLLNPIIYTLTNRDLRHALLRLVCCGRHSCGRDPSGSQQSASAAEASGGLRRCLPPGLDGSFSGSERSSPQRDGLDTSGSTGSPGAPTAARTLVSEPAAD
S1P1, sequence (P21453 whole entry): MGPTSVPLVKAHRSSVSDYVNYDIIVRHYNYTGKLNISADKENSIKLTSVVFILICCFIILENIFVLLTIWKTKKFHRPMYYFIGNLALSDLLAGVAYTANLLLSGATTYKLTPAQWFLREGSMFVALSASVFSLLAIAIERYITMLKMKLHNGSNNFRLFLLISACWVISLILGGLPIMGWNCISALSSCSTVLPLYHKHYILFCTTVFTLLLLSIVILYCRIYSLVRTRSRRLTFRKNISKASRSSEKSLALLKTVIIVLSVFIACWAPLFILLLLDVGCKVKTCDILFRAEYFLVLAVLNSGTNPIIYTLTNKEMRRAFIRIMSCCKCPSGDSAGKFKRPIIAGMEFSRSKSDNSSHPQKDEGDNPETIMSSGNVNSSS

Structure (SMILES) | IC50 (S1P1; [1]) [µM] | IC50 (S1P4; [2]) [µM] | IC50 (Human ATX protein; [3]) [µM] | IC50 (S1P5; [4]) [µM] | IC50 (S1P1) [µM] | IC50 (S1P4) [µM] | IC50 (S1P5) [µM] | IC50 (Human ATX protein) [µM]
CCCCCCCCOc1ccc(C2CCCN(CCC(=O)O)C2)cc1 (centres unmarked) [Example 1, 3-(3-(4-(Octyloxy)phenyl)piperidin-1-yl)propanoic acid] | > 5 | > 5 |  | > 5 |  |  |  | 
CCCCCCCCOc1ccc(C2CCCN(CCCC(=O)O)C2)cc1 (centres unmarked) [Example 2, 4-(3-(4-(Octyloxy)phenyl)piperidin-1-yl)butanoic acid] | > 5 | ≤ 2 |  | > 5 |  |  |  | 
CCCCCCCCOc1cccc(C2CCCN(CCC(=O)O)C2)c1 (centres unmarked) [Example 5, 3-(3-(3-(Octyloxy)phenyl)piperidin-1-yl)propanoic acid] | > 5 | ≤ 2 | 5 to 10 | > 5 |  |  |  | 
CCCCCCCCOc1cccc(C2CCCN(CCCC(=O)O)C2)c1 (centres unmarked) [Example 6, 4-(3-(3-(Octyloxy)phenyl)piperidin-1-yl)butanoic acid] | > 5 | ≤ 2 | 5 to 10 | > 5 |  |  |  | 
CCCCCCCCOc1ccc(C2CCCC(N3CCC(C(=O)O)CC3)C2)cc1 (centres unmarked) [Example 9, 1-(3-(4-(octyloxy)phenyl)cyclohexyl)piperidine-4-carboxylic acid] | > 5 | > 5 | > 10 | > 5 |  |  |  | 
CCCCCCCCOc1ccc(NC2CCCN(CCC(=O)O)C2)nc1 (centres unmarked) [Example 11, 3-(3-(5-(Octyloxy)pyridin-2-ylamino)piperidin-1-yl)propanoic acid] | > 5 | > 5 | 5 to 10 |  |  |  |  | 
CCCCCCCCOc1ccc(N2CCN(CCCC(=O)O)CC2)cc1 [Example 15, 4-(4-(4-(Octyloxy)phenyl)piperazin-1-yl)butanoic acid] |  |  |  |  | > 5 | ≤ 2 | > 5 | > 10
CCCCCCCCOc1ccc(N2CCN(CCC(=O)O)CC2)nc1 [Example 22, 3-(4-(5-(Octyloxy)pyridin-2-yl)piperazin-1-yl)propanoic acid] | > 5 | > 5 |  | > 5 |  |  |  | 
CC(C)(C)[C@H]1CC[C@H](Oc2ccc(C3CCCN(C4CCC(C(=O)O)CC4)C3)cc2)CC1 (stereo partly drawn) [Example 25, 4-(3-(4-((trans-4-(tert-Butyl)cyclohexyl)oxy)phenyl)piperidin-1-yl)cyclohexanecarboxylic acid] | > 5 | ≤ 2 |  |  |  |  |  | 
CC(C)(C)[C@H]1CC[C@H](Oc2ccc(C3=CCN(CCCCC(=O)O)CC3)cc2)CC1 [Example 49, 5-(4-(4-((trans-4-(tert-Butyl)cyclohexyl)oxy)phenyl)-5,6-dihydropyridin-1(2H)-yl)pentanoic acid] |  |  |  | > 5 | > 5 | ≤ 2 |  | 

Continued, in another order:

IC50 (S1P1; [1]) [µM] | IC50 (S1P4; [2]) [µM] | IC50 (Human ATX protein; [3]) [µM] | IC50 (S1P5; [4]) [µM] | Structure (SMILES) | IC50 (S1P1) [µM] | IC50 (S1P4) [µM] | IC50 (S1P5) [µM] | IC50 (Human ATX protein) [µM]
> 5 | ≤ 2 | > 10 |  | CC(C)(C)[C@H]1CC[C@H](Oc2ccc(NC3CCCN(CCC(=O)O)C3)nc2)CC1 (relative stereo) [Example 12, 3-(3-(5-(trans-4-tert-butylcyclohexyloxy)pyridin-2-ylamino)piperidin-1-yl)propanoic acid] |  |  |  | 
> 5 | 2 to 5 | > 10 |  | CC(C)(C)[C@H]1CC[C@H](Oc2ccc(NC3CCCN(CCC(=O)O)C3)cc2)CC1 (relative stereo) [Example 13, 3-(3-((4-((trans-4-(tert-Butyl)cyclohexyl)oxy)phenyl)amino)piperidin-1-yl)propanoic acid] |  |  |  | 
> 5 | > 5 | 5 to 10 | > 5 | CC(C)(C)[C@H]1CC[C@@H](Oc2ccc(C3CCCN(CCCC(=O)O)C3)cc2)CC1 (stereo in doubt) [Example 4, 4-(3-(4-(cis-4-tert-Butylcyclohexyloxy)phenyl)piperidin-1-yl)butanoic acid] |  |  |  | 
 |  | 5 to 10 |  | CC(C)(C)[C@H]1CC[C@H](Oc2ccc(C3CCCN(CCC(=O)O)C3)cc2)CC1 (stereo partly drawn) [Example 3, 3-(3-(4-(trans-4-tert-Butylcyclohexyloxy)phenyl)piperidin-1-yl)propanoic acid] |  |  |  | 
 | ≤ 2 | 5 to 10 | > 5 | CC(C)(C)[C@H]1CC[C@H](Oc2cccc(C3CCCN(CCC(=O)O)C3)c2)CC1 (stereo partly drawn) [Example 7, 3-(3-(3-((trans-4-(tert-Butyl)cyclohexyl)oxy)phenyl)piperidin-1-yl)propanoic acid] |  |  |  | 
 | ≤ 2 | 5 to 10 | > 5 | CC(C)(C)[C@H]1CC[C@H](Oc2cccc(C3CCCN(CCCC(=O)O)C3)c2)CC1 (stereo partly drawn) [Example 8, 4-(3-(3-((trans-4-(tert-Butyl)cyclohexyl)oxy)phenyl)piperidin-1-yl)butanoic acid] |  |  |  | 
> 5 | > 5 | > 10 | > 5 | CC(C)(C)[C@H]1CC[C@H](Oc2ccc(C3CCCC(N4CCC(C(=O)O)CC4)C3)cc2)CC1 (stereo partly drawn) [Example 10, 1-(3-(4-(trans-4-tert-butylcyclohexyloxy)phenyl)cyclohexyl)piperidine-4-carboxylic acid] |  |  |  | 
> 5 | 2 to 5 | > 10 | > 5 | CC(C)(C)[C@H]1CC[C@H](Oc2ccc(N3CCN(CCC(=O)O)CC3)cc2)CC1 [Example 17, 3-(4-(4-((trans-4-(tert-Butyl)cyclohexyl)oxy)phenyl)piperazin-1-yl)propanoic acid] |  |  |  | 
> 5 | 2 to 5 | > 10 | > 5 | CC(C)(C)[C@H]1CC[C@H](Oc2ccc(N3CCN(CCCC(=O)O)CC3)cc2)CC1 [Example 18, 4-(4-(4-((trans-4-(tert-Butyl)cyclohexyl)oxy)phenyl)piperazin-1-yl)butanoic acid] |  |  |  | 
> 5 | ≤ 2 |  | > 5 | CC(C)(C)[C@H]1CC[C@H](Oc2ccc(C3CCN(CCC(=O)O)C3)cc2)CC1 (stereo partly drawn) [Example 23, 3-(3-(4-((trans-4-(tert-Butyl)cyclohexyl)oxy)phenyl)pyrrolidin-1-yl)propanoic acid] |  |  |  | 
> 5 | ≤ 2 |  | > 5 | CC(C)(C)[C@H]1CC[C@H](Oc2ccc(C3CCN(CCCC(=O)O)C3)cc2)CC1 (stereo partly drawn) [Example 24, 4-(3-(4-((trans-4-(tert-Butyl)cyclohexyl)oxy)phenyl)pyrrolidin-1-yl)butanoic acid] |  |  |  | 
> 5 | ≤ 5 |  | > 5 | CC(C)(C)[C@H]1CC[C@H](Oc2ccc(C3CCN(CCCCC(=O)O)CC3)cc2)CC1 [Example 50, 5-(4-(4-((trans-4-(tert-Butyl)cyclohexyl)oxy)phenyl)piperidin-1-yl)pentanoic acid] |  |  |  | 
